Numbers after ± are expanded uncertainties.
Legend:
[1] = Crystal; DTA
[2] = Molar enthalpy of transition or fusion; details: Crystal; DSC

Row | Normal melting temperature [1] | Molar enthalpy of transition or fusion [2] | Structure (SMILES)
1 | 67.60 ± 0.96 °C | 3.94 ± 0.454 kcal/mol | CC(=O)[O-].C[N+](C)(C)CCO [choline acetate]
2 | 147.40 ± 0.96 °C | 8.87 ± 0.502 kcal/mol | C[N+](C)(C)CCOC(=O)CCC(=O)O.[Cl-] [hydrogen choline chloride succinate]
